This is an account of results in ChEMBL document CHEMBL1201862, “PubChem BioAssay data set” (2004).

What all share (experiment): inhibition of tumour cell growth, NCI panel, 48 h
In assay [1] the test system is UACC-62.
Assay [2] relates to UACC-257.
Assay [3] concerns UO-31.
The test system of assay [4] is SF-268.
Assay [5] has as its system T47D.
In assay [6] the test system is SNB-75.
For assay [7], the system named is MDA-N.
Assay [8] concerns OVCAR-4.
The subject of assay [9] is HT-29.
The subject of assay [10] is RPMI-8226.
Assay [11] concerns KM12.
Assay [12] concerns EKVX.
The test system of assay [13] is SF-295.
The subject of assay [14] is CAKI-1.
Assay [15] deals with SK-MEL-5.
In assay [16] the test system is HL-60.
In assay [17] the test system is HCT-15.
The test system of assay [18] is SK-MEL-2.
The subject of assay [19] is HCT-116.

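Briefly, cells in 96-well plates were exposed to five compound concentrations for 48 h, and endpoints were estimated by linear interpolation. GI50 = concentration required for 50% inhibition of growth.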 Activity calls are given as the source filed them. Rule as the data show it: active = GI50 up to about 1.1 µM and inactive = higher.

As for `CCCCN(c1ccccc1)c1ncnc2c1cnn2C`, the GI50 in assay [1] is 31.2 µM (inactive); in [2] it was 28.7 µM (inactive); in assay [3], 40.6 µM (inactive); in [4] it was 34.8 µM (inactive); in assay [5], 20.2 µM (inactive); in [6], 11.7 µM (inactive). Further, the GI50 was 42 µM (inactive) in assay [7]; 27.1 µM (inactive) in [8]; 29.9 µM (inactive) in assay [9]; 14.3 µM (inactive) in [10]; 46 µM (inactive) in assay [11]; 31.8 µM (inactive) in assay [12]. The GI50 in [13] is 32.5 µM (inactive); in assay [14] it was 45.1 µM (inactive); in assay [15], > 100 µM (inactive); in [16] it was 19.1 µM (inactive); in assay [17], 35.4 µM; in [18], 27.5 µM (inactive). Also, in [19], the GI50 is 40.6 µM (inactive).
Take `COc1cc(C2c3cc4c(cc3OC(NNC(N)=O)C2C)OCO4)cc(OC)c1O` (centres undefined): the GI50 was 0.512 µM (active) in assay [1]; 3.19 µM (inactive) in assay [2]; 8.04 µM (inactive) in [3]; 8.26 µM (inactive) in assay [4]; > 100 µM (inactive) in assay [5]; 0.805 µM (active) in [6]. The GI50 is 0.274 µM (active) in assay [7]; > 43.9 µM (inactive) in [8]; 3.13 µM (inactive) in assay [9]; 1.64 µM (inactive) in assay [10]; 0.813 µM (active) in assay [11]; > 28.4 µM (inactive) in assay [12]. Moreover, the GI50 in [13] is 1.04 µM (active); in assay [14], 7.91 µM (inactive); in [15] it was 0.91 µM (active); in assay [16] it was 0.867 µM (active); in assay [17], 13 µM; in assay [18], 6.18 µM (inactive). For the same molecule, the GI50 in [19] is 1.58 µM (inactive).
For the molecule `O=C1N/C(=N\N=C\c2ccccc2)C(c2ccccc2)O1` (centres undefined), the GI50 is 75.7 µM (inactive) in [1]; 66.1 µM (inactive) in [2]; 15.9 µM (inactive) in assay [3]; 52.2 µM (inactive) in [4]; 79.8 µM (inactive) in [5]; < 0.01 µM (active) in [6]. In addition, the GI50 in assay [7] is > 100 µM (inactive); in [8], 38.5 µM (inactive); in assay [9], 53 µM (inactive); in [10], 34.4 µM (inactive); in [11], > 100 µM (inactive); in assay [12] it was 66.8 µM (inactive). Also, the GI50 in assay [13] is 42.5 µM (inactive); in assay [14] it was 74.1 µM (inactive); in assay [15], 66.8 µM (inactive); in [16], 30.1 µM (inactive); in [17] it was 19.8 µM; in assay [18], > 100 µM (inactive). The GI50 in [19] is 37.3 µM (inactive).
With `CC12CC3OC(=O)C1COC14OC5(C2C1=O)C(O)(CCC1C4CC2OC24CC=CC(=O)C14C)C(=O)OC35C` (centres undefined), the GI50 in [1] is 13.2 µM (inactive); in assay [2], 13 µM (inactive); in assay [3], 16.9 µM (inactive); in assay [4], 36.7 µM (inactive); in [5], 15.7 µM (inactive); in assay [6] it was 76.7 µM (inactive). Further, the GI50 in assay [7] was 12.4 µM (inactive); in assay [8], 66.2 µM (inactive); in [9], 28.5 µM (inactive); in assay [10], 19.2 µM (inactive); in assay [11], 17.3 µM (inactive); in assay [12], 32 µM (inactive). For the same molecule, the GI50 is 24.8 µM (inactive) in assay [13]; 13 µM (inactive) in [14]; 3.88 µM (inactive) in [15]; 8.04 µM (inactive) in [16]; 16.4 µM in [17]; 14.5 µM (inactive) in [18]. Moreover, the GI50 in assay [19] is 11.6 µM (inactive).
For `O=C(O)C1C2c3ccccc3C(c3ccccc32)C1C(=O)NCC1CC1` (centres undefined), the GI50 in [1] was 38.5 µM (inactive); in assay [2], 19.1 µM (inactive); in assay [3], 71.4 µM (inactive); in assay [4] it was 94.4 µM (inactive); in [5], 56.8 µM (inactive); in [6], 84.5 µM (inactive). Further, the GI50 in assay [7] was 48.2 µM (inactive); in assay [8], 79.1 µM (inactive); in assay [9] it was 71.6 µM (inactive); in assay [10], 24.7 µM (inactive); in [11], 55.3 µM (inactive); in [12] it was 71.9 µM (inactive). Besides, the GI50 is 46.2 µM (inactive) in [13]; > 100 µM (inactive) in assay [14]; 66.8 µM (inactive) in assay [15]; 24.8 µM (inactive) in assay [16]; 48.3 µM in assay [17]; 91.6 µM (inactive) in assay [18]. Also, the GI50 in assay [19] was 47.4 µM (inactive).
In the case of `COC(=O)[C@@H]1C=CCN1S(=O)(=O)c1ccc(C)cc1`, the GI50 was 38 µM (inactive) in [1]; > 100 µM (inactive) in [2]; > 100 µM (inactive) in assay [3]; > 100 µM (inactive) in [4]; > 100 µM (inactive) in assay [5]; > 100 µM (inactive) in assay [6]. The GI50 is 29.2 µM (inactive) in assay [7]; > 100 µM (inactive) in assay [8]; > 100 µM (inactive) in [9]; > 100 µM (inactive) in [10]; > 100 µM (inactive) in [11]; > 100 µM (inactive) in [12]. Further, the GI50 in assay [13] is > 100 µM (inactive); in assay [14], 20.2 µM (inactive); in assay [15], 59.6 µM (inactive); in assay [16], 24.2 µM (inactive); in [17], 37.5 µM; in assay [18] it was > 100 µM (inactive). The GI50 in assay [19] is 34.2 µM (inactive).
For the molecule `C=C1C(=O)O[C@H]2C/C(C)=C/CC/C(C)=C/CC[C@@](C)(O)[C@@H](I)C[C@@H]12`, the GI50 in [1] is 11.3 µM (inactive); in assay [2], 12.4 µM (inactive); in assay [3], 11.7 µM (inactive); in [4], 14 µM (inactive); in assay [5], 11.7 µM (inactive); in assay [6], 11 µM (inactive). For the same molecule, the GI50 is 3.33 µM (inactive) in [7]; 4.94 µM (inactive) in assay [8]; 6.52 µM (inactive) in assay [9]; 2.69 µM (inactive) in [10]; 5.65 µM (inactive) in [11]; 7.14 µM (inactive) in [12]. The GI50 in assay [13] was 18.4 µM (inactive); in assay [14], 8.93 µM (inactive); in assay [15] it was 11.8 µM (inactive); in assay [16] it was 2.58 µM (inactive); in assay [17] it was 6.04 µM; in assay [18], 11.7 µM (inactive). Further, the GI50 in [19] is 4.14 µM (inactive).
On to `COc1ccc(OC)c2c1C[C@@H]1C(C#N)N3[C@H](Cc4c(OC)ccc(OC)c4[C@@H]3C)C(=O)N1[C@H]2C` (some centres undefined), for which the GI50 in [1] was 2.36 µM (inactive); in assay [2] it was 2.51 µM (inactive); in assay [3] it was 2.25 µM (inactive); in [4] it was 2.15 µM (inactive); in [5], 3.11 µM (inactive); in assay [6] it was 1.08 µM (active). The GI50 was 4.33 µM (inactive) in assay [7]; 3.23 µM (inactive) in [8]; 8.05 µM (inactive) in assay [9]; 2.53 µM (inactive) in assay [10]; 2.77 µM (inactive) in assay [11]; 5.77 µM (inactive) in [12]. The GI50 in assay [13] is 14.9 µM (inactive); in [14], 4.72 µM (inactive); in [15], 1.75 µM (inactive); in [16], 1.85 µM (inactive); in assay [17], 3.08 µM; in assay [18] it was 2.16 µM (inactive). In addition, in [19], the GI50 is 3.83 µM (inactive).
As to `CC1(C)C(CBr)=[N+]([O-])C(C)(C)N1O`, the GI50 in assay [1] was 7.59 µM (inactive); in assay [2], 8.99 µM (inactive); in assay [3], > 10 µM (inactive); in assay [4], 9.71 µM (inactive); in assay [5] it was 2.16 µM (inactive); in assay [6], 3.17 µM (inactive). In addition, the GI50 in assay [7] is 3.99 µM (inactive); in [8] it was 1.77 µM (inactive); in assay [9] it was > 8.75 µM (inactive); in assay [10], > 5.05 µM (inactive); in assay [11] it was > 10 µM (inactive); in [12], > 5.6 µM (inactive). For the same molecule, the GI50 in [13] was > 10 µM (inactive); in assay [14] it was 2.56 µM (inactive); in assay [15], 4.16 µM (inactive); in [16] it was > 4.6 µM (inactive); in [17], 2.55 µM; in [18], > 9.29 µM (inactive). The GI50 in assay [19] is 2.12 µM (inactive).
Turning to `Clc1ccc(Cc2nc3cc(CCN4CCN(c5ccccc5)CC4)ccc3[nH]2)cc1`, the GI50 in assay [1] is 16 µM (inactive); in [2], 5.42 µM (inactive); in assay [3] it was 8.07 µM (inactive); in [4], 25.5 µM (inactive); in assay [5] it was 7.01 µM (inactive); in assay [6] it was 12.8 µM (inactive). Moreover, the GI50 in assay [7] was 15.3 µM (inactive); in [8], 10.3 µM (inactive); in assay [9], 5.58 µM (inactive); in assay [10] it was 4.6 µM (inactive); in assay [11] it was 11.3 µM (inactive); in assay [12], 22 µM (inactive). For the same molecule, the GI50 in assay [13] is 12.3 µM (inactive); in assay [14], 14.4 µM (inactive); in [15], 12.6 µM (inactive); in assay [16] it was 12.6 µM (inactive); in assay [17], 15 µM; in [18], 15 µM (inactive). In addition, in assay [19], the GI50 is 12 µM (inactive).
Consider `CNc1ccc(-c2nc3cc(C)ccc3o2)cc1`, for which the GI50 in assay [1] is 68.5 µM (inactive); in assay [2], > 100 µM (inactive); in assay [3] it was 72.3 µM (inactive); in assay [4], 42.7 µM (inactive); in assay [5], 13.8 µM (inactive); in assay [6] it was 14.7 µM (inactive). The GI50 in assay [7] is > 100 µM (inactive); in [8] it was > 100 µM (inactive); in assay [9], > 100 µM (inactive); in [10] it was > 100 µM (inactive); in assay [11], > 100 µM (inactive); in assay [12], 32.4 µM (inactive). For the same molecule, the GI50 in assay [13] was 28.9 µM (inactive); in [14], > 100 µM (inactive); in assay [15], > 100 µM (inactive); in [16], > 100 µM (inactive); in assay [17] it was over 100 µM; in [18], > 100 µM (inactive). Moreover, the GI50 in [19] is > 100 µM (inactive).
